# Source: patent US12329158B2, “Large-scale methods of uniformly coating packaging surfaces with a volatile antimicrobial to preserve food freshness” (AGROFRESH INC., priority 2013, dated 2025)
# Experiments:
# Botrytis cinerea [1] = test: Painting on base, lid or base and lid of clamshells; strawberries (Example 6); type: in vivo
# Experimental: Five milligrams of Compound A was dissolved in 1 ml of ethanol prior to being uniformly administered to the interior of the clamshell by painting or spraying, and then dried for 5 minutes. After coating the clamshells with Compound A using various application techniques (i.e., sublimation, spraying, or painting), eight ethanol-washed strawberries were placed in the clamshell with stem end facing downwards. Each strawberry fruit was wounded using a T15 screwdriver tip to a uniform depth of eight mm (8 mm). […] Uninoculated strawberries were removed from their commercial package, and directly transferred into treated clamshells without any washing or inoculation steps.
# Treated clamshells lids were closed, and then placed at 1° C. for an initial time period of 5 days. Clamshells were then removed from low temperature, and held for a second time period of 6 days at room temperature where the point of inoculation on the strawberry fruits was assessed for indication of disease incidence reported as a percentage (%). Severity of disease incidence was also reported.
# This in vivo assay was used to evaluate the ability of Compound A to volatilize from different locations of a clamshell (i.e., the base and/or the lid of the clamshell) in order to control or inhibit fruit infection by pathogenic microorganism, Botrytis cinerea. This experiment was conducted exactly as described in Example 1, with a few exceptions. Compound A was administered to the clamshell by painting only. 5 mg of Compound A was painted onto the surface of the base of the clamshell or the lid of the clamshell (i.e., 5 mg/clamshell treatment rate). 2.5 mg of Compound A was painted onto the base and the lid of the clamshell (for a total of 5 mg/clamshell treatment rate). The clamshell was then permitted to dry for 5 minutes. Strawberries were inoculated with Botrytis cinerea, placed within the clamshell for an initial time period of 5 days, and assessed for disease incidence and severity over a second time period of 7 days as described in Example 1.
# Botrytis cinerea [2] = test: In vitro inhibition assay for volatile fungicide, 12-well plates (Example 7); type: cell-based
# Experimental: For testing activity against fungi pathogens, an in vitro inhibition assay for volatile antimicrobial compounds is developed using 12-Well (7 milliliter (mL) volume per well) microtiter plates. A 3-mL volume of full-strength Potato Dextrose Agar (PDA) is added to each well. After cooling, 1 microliter (μL) of 1×10^6 per mL Botrytis cinerea spore suspension is spot pipetted to the center of the agar. For the first experiment, inoculated plates are allowed to germinate for 5 days at 4° C. For the second experiment, plates are inoculated immediately prior to volatile fungicide treatment. Small Whatman #1 filter disks (Cat. No. 1001-0155) are placed, in duplicate, on the underside of a polyethylene PCR plate sealing film.
# The acetone is permitted to evaporate for 5 minutes. The headspace around the Botrytis cinerea inoculum is then sealed inside the well by the film with the adhering disk containing the fungicide. Plates are inverted, placed over the treated disks and sealed to prevent any of the chemical from flaking from the disk and falling onto the inoculated agar. After 14 days of storage at 4° C., cultures are evaluated for percent growth relative to control. […]
# Penicillium expansum = test: Blue mold on apple, contact assay; type: in vivo
# Experimental: Contact Assay: […] A 250 mL solution of each concentration is used to dip two inoculated apples, one minute per apple, performed in triplicate per rate. The dipped fruits are then placed back into the […] are then placed in a secondary container and incubated at 1° C. for 5 days. After incubation, fruits are evaluated for diameter (mm) of rot development (browning) up to 7 days at 21° C.
# [3] = Inoculated Fruit, painted on Base and Lid, 2.5/2.5 mg, Day 0
# [4] = Inoculated Fruit, painted on Base and Lid, 2.5/2.5 mg, Day 1
# [5] = Inoculated Fruit, painted on Base and Lid, 2.5/2.5 mg, Day 2
# [6] = Inoculated Fruit, painted on Base and Lid, 2.5/2.5 mg, Day 3
# [7] = Inoculated Fruit, painted on Base and Lid, 2.5/2.5 mg, Day 4
# [8] = Inoculated Fruit, painted on Base and Lid, 2.5/2.5 mg, Day 5
# [9] = Inoculated Fruit, painted on Base and Lid, 2.5/2.5 mg, Day 6
# [10] = Inoculated Fruit, painted on Base and Lid, 2.5/2.5 mg, Day 7
# [11] = Inoculated Fruit, painted on Base, 5 mg, Day 7
# [12] = Uninoculated Fruit, painted on Base, 5 mg, Day 0
# [13] = Uninoculated Fruit, painted on Base, 5 mg, Day 1
# [14] = Uninoculated Fruit, painted on Base, 5 mg, Day 2
# [15] = Uninoculated Fruit, painted on Base, 5 mg, Day 3
# [16] = Uninoculated Fruit, painted on Base, 5 mg, Day 4
smiles,measurement,setting,value
"OB1OCc2cc(F)ccc21 [Compound A, 5-fluoro-1,3-dihydro-1-hydroxy-2,1-benzoxaborole]",Gray Mold Incidence (%),Botrytis cinerea [1]; [3],0.0%
same,Gray Mold Severity (0-4),Botrytis cinerea [1]; [3],0.0
same,Gray Mold Incidence (%),Botrytis cinerea [1]; [4],0.0%
same,Gray Mold Severity (0-4),Botrytis cinerea [1]; [4],0.0
same,Gray Mold Incidence (%),Botrytis cinerea [1]; [5],0.0%
same,Gray Mold Severity (0-4),Botrytis cinerea [1]; [5],0.0
same,Gray Mold Incidence (%),Botrytis cinerea [1]; [6],0.0%
same,Gray Mold Severity (0-4),Botrytis cinerea [1]; [6],0.0
same,Gray Mold Incidence (%),Botrytis cinerea [1]; [7],0.0%
same,Gray Mold Severity (0-4),Botrytis cinerea [1]; [7],0.0
same,Gray Mold Incidence (%),Botrytis cinerea [1]; [8],0.0%
same,Gray Mold Severity (0-4),Botrytis cinerea [1]; [8],0.0
same,Gray Mold Incidence (%),Botrytis cinerea [1]; [9],0.0%
same,Gray Mold Severity (0-4),Botrytis cinerea [1]; [9],0.0
same,Gray Mold Incidence (%),Botrytis cinerea [1]; [10],0.0%
same,Gray Mold Severity (0-4),Botrytis cinerea [1]; [10],0.0
same,Gray Mold Severity (0-4),"Botrytis cinerea [1]; Inoculated Fruit, painted on Base, 5 mg, Day 0",0.0
same,Gray Mold Severity (0-4),"Botrytis cinerea [1]; Inoculated Fruit, painted on Base, 5 mg, Day 1",0.0
same,Gray Mold Severity (0-4),"Botrytis cinerea [1]; Inoculated Fruit, painted on Base, 5 mg, Day 2",0.1
same,Gray Mold Severity (0-4),"Botrytis cinerea [1]; Inoculated Fruit, painted on Base, 5 mg, Day 3",0.1
same,Gray Mold Severity (0-4),"Botrytis cinerea [1]; Inoculated Fruit, painted on Base, 5 mg, Day 4",0.0
same,Gray Mold Severity (0-4),"Botrytis cinerea [1]; Inoculated Fruit, painted on Base, 5 mg, Day 5",0.0
same,Gray Mold Severity (0-4),"Botrytis cinerea [1]; Inoculated Fruit, painted on Base, 5 mg, Day 6",0.2
same,Gray Mold Incidence (%),Botrytis cinerea [1]; [11],18.8%
same,Gray Mold Severity (0-4),Botrytis cinerea [1]; [11],0.3
same,Gray Mold Severity (0-4),"Botrytis cinerea [1]; Inoculated Fruit, painted on Lid, 5 mg, Day 0",0.0
same,Gray Mold Severity (0-4),"Botrytis cinerea [1]; Inoculated Fruit, painted on Lid, 5 mg, Day 1",0.0
same,Gray Mold Severity (0-4),"Botrytis cinerea [1]; Inoculated Fruit, painted on Lid, 5 mg, Day 2",0.0
same,Gray Mold Severity (0-4),"Botrytis cinerea [1]; Inoculated Fruit, painted on Lid, 5 mg, Day 3",0.0
same,Gray Mold Severity (0-4),"Botrytis cinerea [1]; Inoculated Fruit, painted on Lid, 5 mg, Day 4",0.0
same,Gray Mold Severity (0-4),"Botrytis cinerea [1]; Inoculated Fruit, painted on Lid, 5 mg, Day 5",0.0
same,Gray Mold Severity (0-4),"Botrytis cinerea [1]; Inoculated Fruit, painted on Lid, 5 mg, Day 6",0.0
same,Gray Mold Severity (0-4),"Botrytis cinerea [1]; Inoculated Fruit, painted on Lid, 5 mg, Day 7",0.0
same,Gray Mold Severity (0-4),"Botrytis cinerea [1]; Uninoculated Fruit, painted on Base and Lid, 2.5/2.5 mg, Day 0",0.0
same,Gray Mold Severity (0-4),"Botrytis cinerea [1]; Uninoculated Fruit, painted on Base and Lid, 2.5/2.5 mg, Day 1",0.0
same,Gray Mold Severity (0-4),"Botrytis cinerea [1]; Uninoculated Fruit, painted on Base and Lid, 2.5/2.5 mg, Day 2",0.0
same,Gray Mold Severity (0-4),"Botrytis cinerea [1]; Uninoculated Fruit, painted on Base and Lid, 2.5/2.5 mg, Day 3",0.2
same,Gray Mold Severity (0-4),"Botrytis cinerea [1]; Uninoculated Fruit, painted on Base and Lid, 2.5/2.5 mg, Day 4",0.8
same,Gray Mold Severity (0-4),"Botrytis cinerea [1]; Uninoculated Fruit, painted on Base and Lid, 2.5/2.5 mg, Day 5",1.5
same,Gray Mold Severity (0-4),"Botrytis cinerea [1]; Uninoculated Fruit, painted on Base and Lid, 2.5/2.5 mg, Day 6",1.5
same,Gray Mold Severity (0-4),"Botrytis cinerea [1]; Uninoculated Fruit, painted on Base and Lid, 2.5/2.5 mg, Day 7",1.5
same,Gray Mold Incidence (%),Botrytis cinerea [1]; [12],0.0%
same,Gray Mold Severity (0-4),Botrytis cinerea [1]; [12],0.0
same,Gray Mold Incidence (%),Botrytis cinerea [1]; [13],0.0%
same,Gray Mold Severity (0-4),Botrytis cinerea [1]; [13],0.0
same,Gray Mold Incidence (%),Botrytis cinerea [1]; [14],0.0%
same,Gray Mold Severity (0-4),Botrytis cinerea [1]; [14],0.0
same,Gray Mold Incidence (%),Botrytis cinerea [1]; [15],0.0%
same,Gray Mold Severity (0-4),Botrytis cinerea [1]; [15],0.0
same,Gray Mold Incidence (%),Botrytis cinerea [1]; [16],2.2%
same,Gray Mold Severity (0-4),Botrytis cinerea [1]; [16],0.3
same,Gray Mold Severity (0-4),"Botrytis cinerea [1]; Uninoculated Fruit, painted on Base, 5 mg, Day 5",0.8
same,Gray Mold Severity (0-4),"Botrytis cinerea [1]; Uninoculated Fruit, painted on Base, 5 mg, Day 6",1.2
same,Gray Mold Severity (0-4),"Botrytis cinerea [1]; Uninoculated Fruit, painted on Base, 5 mg, Day 7",1.5
same,Gray Mold Severity (0-4),"Botrytis cinerea [1]; Uninoculated Fruit, painted on Lid, 5 mg, Day 0",0.0
same,Gray Mold Severity (0-4),"Botrytis cinerea [1]; Uninoculated Fruit, painted on Lid, 5 mg, Day 1",0.0
same,Gray Mold Severity (0-4),"Botrytis cinerea [1]; Uninoculated Fruit, painted on Lid, 5 mg, Day 2",0.0
same,Gray Mold Severity (0-4),"Botrytis cinerea [1]; Uninoculated Fruit, painted on Lid, 5 mg, Day 3",0.2
same,Gray Mold Severity (0-4),"Botrytis cinerea [1]; Uninoculated Fruit, painted on Lid, 5 mg, Day 4",1.2
same,Gray Mold Severity (0-4),"Botrytis cinerea [1]; Uninoculated Fruit, painted on Lid, 5 mg, Day 5",2.0
same,Gray Mold Severity (0-4),"Botrytis cinerea [1]; Uninoculated Fruit, painted on Lid, 5 mg, Day 6",2.0
same,Gray Mold Severity (0-4),"Botrytis cinerea [1]; Uninoculated Fruit, painted on Lid, 5 mg, Day 7",2.5
same,Botrytis inhibition % (in vitro),Botrytis cinerea [2]; 0.0006 mg per disk,46%
same,Botrytis inhibition % (in vitro),Botrytis cinerea [2]; 0.001 mg per disk,69%
same,Botrytis inhibition % (in vitro),Botrytis cinerea [2]; 0.0024 mg per disk,85%
same,Botrytis inhibition % (in vitro),Botrytis cinerea [2]; 0.005 mg per disk,100%
same,Botrytis inhibition % (in vitro),Botrytis cinerea [2]; 0.01 mg per disk,100%
same,Botrytis inhibition % (in vitro),Botrytis cinerea [2]; 0.023 mg per disk,100%
same,Botrytis inhibition % (in vitro),Botrytis cinerea [2]; 0.04 mg per disk,100%
same,Botrytis inhibition % (in vitro),Botrytis cinerea [2]; 0.08 mg per disk,100%
same,Botrytis inhibition % (in vitro),Botrytis cinerea [2]; 0.16 mg per disk,100%
same,Botrytis inhibition % (in vitro),Botrytis cinerea [2]; 0.31 mg per disk,100%
same,Botrytis inhibition % (in vitro),Botrytis cinerea [2]; 0.63 mg per disk,100%
same,Botrytis inhibition % (in vitro),Botrytis cinerea [2]; 1.25 mg per disk,100%
same,Rate giving 100% in vitro inhibition of Botrytis cinerea,"Botrytis cinerea [2]; volatile, 14 days at 4 C",0.005 mg/disk
same,Browning Rot (diameter; mm),"Penicillium expansum; 2 mg/L, Day 0",0.0 mm
same,Browning Rot (diameter; mm),"Penicillium expansum; 2 mg/L, Day 2",3.7 mm
same,Browning Rot (diameter; mm),"Penicillium expansum; 2 mg/L, Day 4",15.5 mm
same,Browning Rot (diameter; mm),"Penicillium expansum; 2 mg/L, Day 7",23.3 mm
same,Browning Rot (diameter; mm),"Penicillium expansum; 10 mg/L, Day 0",0.0 mm
same,Browning Rot (diameter; mm),"Penicillium expansum; 10 mg/L, Day 2",2.2 mm
same,Browning Rot (diameter; mm),"Penicillium expansum; 10 mg/L, Day 4",8.0 mm
same,Browning Rot (diameter; mm),"Penicillium expansum; 10 mg/L, Day 7",20.2 mm
same,Browning Rot (diameter; mm),"Penicillium expansum; 50 mg/L, Day 0",0.0 mm
same,Browning Rot (diameter; mm),"Penicillium expansum; 50 mg/L, Day 2",0.7 mm
same,Browning Rot (diameter; mm),"Penicillium expansum; 50 mg/L, Day 4",5.7 mm
same,Browning Rot (diameter; mm),"Penicillium expansum; 50 mg/L, Day 7",15.0 mm
same,Browning Rot (diameter; mm),"Penicillium expansum; 250 mg/L, Day 0",0.0 mm
same,Browning Rot (diameter; mm),"Penicillium expansum; 250 mg/L, Day 2",0.0 mm
same,Browning Rot (diameter; mm),"Penicillium expansum; 250 mg/L, Day 4",4.3 mm
same,Browning Rot (diameter; mm),"Penicillium expansum; 250 mg/L, Day 7",11.8 mm
